This is an account of results in US8835354B2, “Composition for controlling plant diseases and method for controlling plant diseases” (Sumitomo Chemical Company, Limited, priority 2008, dated 2014).

Format in all cases: in vivo
The subject of assay [1] is Rhizoctonia solani, pathogen of cucumber damping-off. The assay is described as follows: Cucumber damping-off seed treatment test (Test Example 1). Conditions: seventh day. The text has this:
An acetone solution of compound (1b) and an acetone solution of tolclofos-methyl were mixed so as to prepare mixed liquids containing compound (1b) and tolclofos-methyl in predetermined concentration. These mixed liquids were used for smear treatment of cucumber (Sagamihanjiro) seeds using a rotary seed treatment machine (seed dresser, produced by Hans-Ulrich Hege GmbH) so as to obtain treated seeds. The treated seeds were left untouched overnight and then disseminated on the soil which filled a plastic pot and covered with the soil containing Rhizoctonia solani, pathogen of cucumber damping-off, which had been cultured on a bran medium. They were allowed to grow in a greenhouse while irrigated and the number of non-budding seeds was checked on the seventh day after the dissemination and the incidence of disease was calculated by Equation 3. The control value was calculated by Equation 1 based on the incidence of disease. The incidence of disease was also checked in the case in which the plants had not been treated with the agent in order to calculate the control value. […]
Generally, the control value expected for the case where the given two kinds of active ingredient compounds are mixed and used for the treatment, the so-called control value expectation is calculated from the following Colby's calculating equation. […]

In assay [2] the test system is Sclerotinia homeocarpa, pathogen of dollar spot of turfgrass. The assay can be described thus: Turfgrass dollar spot foliage application test (Test Example 2). Conditions: 14 days. As to the method: (§1) Control value=100(A−B)/A “Equation 1”
(§2) A: Incidence of disease of plant in untreated area
(§3) B: Incidence of disease of plant in treated area
(§4) Generally, the control value expected for the case where the given two kinds of active ingredient compounds are mixed and used for the treatment, the so-called control value expectation is calculated from the following Colby's calculating equation. E=X+Y−(X×Y)/100 “Equation 2”
(§5) X: Control value (%) when active ingredient compound A is used for treatment in M g per hectare or in M g per 100 kg of seeds
(§6) Y: Control value (%) when active ingredient compound B is used for treatment in N g per hectare or in N g per 100 kg of seeds
(§7) E: Control value (%) expected for the case where active ingredient compound A in M g per hectare or in M g per 100 kg of seeds and active ingredient compound B in N g per hectare or in N g per 100 kg of seeds are mixed and used for treatment (hereinbelow referred to as “control value expectation”) “Synergetic effect”=(Actual control value)×100/(Control value expectation) Incidence of disease=(Number of no budding seeds)×100/(Number of total disseminated seeds) “Equation 3”
A plastic pot was filled with sandy soil. Turfgrass (bentgrass penncross) was disseminated and allowed to grow in a green house for 3 weeks. A wettable powder of compound (1b) and a wettable powder of tolclofos-methyl (Grancer Wettable Powder manufactured by Nihon Green & Garden Corporation) were respectively diluted with water and then tank-mixed so as to prepare tank-mixed liquids containing compound (1b) and tolclofos-methyl in predetermined concentration. The tank-mixed liquids were subjected to foliage application such that they could be sufficiently adhered to the leaves of the aforementioned turfgrass. Thereafter, the plants were air-dried. After the plants were air-dried, Sclerotinia homeocarpa, pathogen of dollar spot of turfgrass, which had been cultured on a bran medium was sprayed on the plants to be treated from above. Then, the plants were placed in a greenhouse at 19° C. to 23° C. under high humidity for 14 days, and thereafter control effect was checked. The diseased area ratio of the pot plants on which the agents had been sprayed was determined as the incidence of disease at the time of checking and the control value calculated by Equation 1 based on the incidence of disease thus determined. In order to calculate the control value, the incidence of disease was also determined in the case in which the plants had not been treated with the agent.
As a comparison, the respective wettable powders described above were diluted with water in predetermined concentration so as to prepare a compound (1b) liquid and a tolclofos-methyl liquid respectively and they were subjected to similar tests.

For assay [3], the system named is Rhizoctonia solani, pathogen of brown patch of turfgrass. The assay can be described thus: Turfgrass brown patch foliage application test (Test Example 3). The settings on record: 14 days. As to the method: as §1, §2, §3, §4, §5, §6, §7
A plastic pot was filled with sandy soil. Turfgrass (bentgrass penncross) was disseminated and allowed to grow in a green house for 3 weeks. A wettable powder of compound (1b) and a wettable powder of tolclofos-methyl (Grancer Wettable Powder manufactured by Nihon Green & Garden Corporation) were respectively diluted with water and then tank-mixed so as to prepare tank-mixed liquids containing compound (1b) and tolclofos-methyl in predetermined concentration. […] The diseased area ratio of the pot plants on which the agents had been sprayed was determined as the incidence of disease at the time of checking and the control value was calculated by Equation 1 based on the incidence of disease thus determined. In order to calculate the control value, the incidence of disease was also determined in the case in which the plants had not been treated with the agent. […]

Assay [4] deals with Pythium irregulare, pathogen of cucumber damping-off. The assay can be described thus: Cucumber damping-off seed treatment test with metalaxyl (Test Example 4). The settings on record: seventh day. As to the method: as §1, §2, §3, §4, §5, §6, §7
(§8) An acetone solution of compound (1b) and an acetone solution of metalaxyl were mixed so as to prepare mixed liquids containing compound (1b) and metalaxyl in predetermined concentration. These mixed liquids were adhered on the surface of cucumber (Sagamihanjiro) seeds so as to obtain treated seeds. […] They were allowed to grow in a greenhouse while irrigated and the number of non-budding seeds was checked on the seventh day after the dissemination and the incidence of disease was calculated by Equation 3. The control value was calculated by Equation 1 based on the incidence of disease. In order to calculate the control value, the incidence of disease was also determined in the case in which the plants had not been treated with the agent. […]

For assay [5] the test system is unchanged. The assay is described as follows: Cucumber damping-off seed treatment test with mefenoxam (Test Example 5). The settings on record: seventh day. As to the method: as §1, §2, §3, §4, §5, §6, §7
as §8, with “mefenoxam” for “metalaxyl”

The mark [6] stands for this setting: compound (1b) 0.005 g/100 kg-seed alone.
Where [7] appears, read: tolclofos-methyl 37.5 g/ha alone.

In the case of `CNC(=O)C(OC)c1ccccc1COc1cc(C)ccc1C` (racemic) [(1b)], the Actual control value amounted to 30% in assay [1] (compound (1b) 1 g/100 kg-seed alone); 30% in assay [3] (compound (1b) 9.4 g/ha alone); 45% in assay [3] (compound (1b) 37.5 g/ha alone); 25% in assay [4] (setting [6]); 25% in assay [5] (setting [6]). Besides, in assay [2] (compound (1b) 150 g/ha alone), the “Actual control value (%)” value is 67.2%.

In the case of `COCC(=O)N(c1c(C)cccc1C)[C@H](C)C(=O)OC` [Mefenoxam, mefenoxam], the Actual control value in assay [5] (mefenoxam 0.00125 g/100 kg-seed alone) was determined as 25%; in assay [5] (mefenoxam 0.005 g/100 kg-seed alone), 50%.

Regarding `COCC(=O)N(c1c(C)cccc1C)C(C)C(=O)OC` (stereo not drawn) [Metalaxyl, metalaxyl], the results for the Actual control value in assay [4] (metalaxyl 0.00125 g/100 kg-seed alone) and in assay [4] (metalaxyl 0.0025 g/100 kg-seed alone) were 25% and 12.5%, respectively.

As to `COP(=S)(OC)Oc1c(Cl)cc(C)cc1Cl` [Tolclofos-methyl, tolclofos-methyl], the figures for the Actual control value in assay [1] (tolclofos-methyl 10 g/100 kg-seed alone) and in assay [3] (setting [7]) were 57% and 30%, respectively. Moreover, the figures for the “Actual control value (%)” value in assay [2] (setting [7]), in assay [2] (tolclofos-methyl 150 g/ha alone) and in assay [2] (tolclofos-methyl 600 g/ha alone) were 12.4%, 43.7% and 59.3%, respectively.
